Laboratory results published in patent publication US8815210B2, “Diagnostic composition comprising plasma cations having superior safety profile” (GE Healthcare AS, priority 2009, dated 2014).

Columns and labels:
[1] = test system: human serum albumin (HSA); test: Binding to human serum albumin, equilibrium dialysis; assay type: in vitro ADME; details: 25 hours, citrated human plasma
Method: The binding of Compound I to human serum albumin (HSA) was determined using an equilibrium dialysis method. The binding of Compound I to human serum albumin was determined to be very low, 3.1±1.3%, confirming the negligible interaction of the substance with endogenous proteins.
The binding of Compound I to human serum albumin (HSA) was determined using an equilibrium dialysis method. A stock solution of Compound I (5.0 mg/ml in phosphate buffered saline (PBS)) was mixed with citrate:human plasma in a ratio of 1:9. Equilibration was carried out in a Diachem Dianorm Dialyser against an aqueous phosphate buffered saline using a Diachem 10.17 MW cutoff 10000 membrane and was carried out for 25 hours. Analysis of the solutions was performed using an ICP-AES instrument. In addition, spiked PBS solutions were also equilibrated against citrated human plasma solutions to ensure that the equilibrium had been obtained. The binding of Compound I to human serum albumin was determined to be very low, 3.1±1.3%, confirming the negligible interaction of the substance with endogenous proteins. As a reference, the binding of iodixanol to HSA was determined to 0.4±0.9%.

[2] = Partition coefficient between octanol and water; assay type: physicochemical; details: n-octanol/water
Method: As a measure of the hydrophilicity of Compound I, the partition coefficient between octanol and water was determined. Water (5 ml) containing the test substance (0.3 mg/ml) was shaken with 15 ml n-octanol until equilibrium had been obtained. The aqueous phase was separated by centrifugation and analyzed by HPLC (HP1100 equipped with a Discovery C18 column, 100×2.1 mm) using UV detection at 244 nm and a flow of 0.3 ml/min. Isocratic HPLC conditions were used, 8% acetonitrile in water (v/v). The octanol phase (12.5 ml) was extracted with water (0.75 ml) until equilibrium had been obtained and the phases were separated by centrifugation. The aqueous phase was analyzed by HPLC using the conditions detailed above. Both octanol and water were pre-saturated with water and octanol, respectively, before the partition coefficient experiments. […] As a comparison, the corresponding logP of iodixanol was determined to −4.02. The reported literature value is −4.05. The increased hydrophilicity of Compound I compared to iodixanol is confirmed by its HPLC behavior.

Sca:SD rats = details: rat, in vivo
Method: Young adult male Sca:SD rats (Scanbur, Sweden), weighing 200±20 g, were injected intravenously at a rate of 1.2 ml/min with either Compound I (340 mgI/mL, 286 mosmol/kg), iodixanol (321 mgI/mL, 284 mosmol/kg), osmotic control mannitol (283 mosmol/kg), or saline (290 mosmol/kg), administered as 2 separate doses 4 hours apart. For the interim kill animals (day 2 post-treatment), Compound I and iodixanol were dosed at 8, 10 and 12.8 gI/kg, corresponding to total dose volumes of 23.7, 29.7 and 38.0 ml/kg, and 25, 31.3 and 40 ml/kg, respectively, whereas for mannitol and saline, the dose volume was 40 ml/kg. For the 7 day terminal kill animals, there were 4 dose groups; Compound I and iodixanol (12.8 gI/kg), and saline and mannitol (40 mL/kg). In all cases, each group included 8 animals.
The following evaluations were made during the study; clinical signs, body weights and blood for haematology and clinical chemistry on days 0, 2 and 7, and gross observations, organ weight and histomorphological examination of tissues from the animals killed by excess intravenous thiopental injection on days 2 or 7. The day of dosing was defined as Day 0. Clinical biochemistry parameters (Na, K, Cl, PO4, Ca, AST, ALT, ALP, cholesterol, creatinine, CK, GGT, TG (triglyceride), total bilirubin, total protein, urea, albumin, LDH and GLDH were measured on a Beckman Synchron CX5 at 37° C. Haematology parameters (WBC, differential WBC, RBC, WBC/RBC ratio, Hgb, PLT, HCT, MCH, MCHC, MCV, MPV and RDW) were analyzed with an Abbott Cell-Dyn 3500 CS automated haematology analyzer. Kidneys from saline control and the 12.8 gI/kg Compound I and iodixanol groups were immerse fixed in 10% neutral buffered formalin, processed into paraffin wax, sectioned at a nominal thickness of 5 μm, stained with haematoxylin and eosin and examined by light microscopy.
The data were analysed by parametric one-way ANOVA, followed by Dunnett's post procedure test, using the 2 days and 7 days saline groups for comparison with the 2 days and 7 days iodixanol and Compound I groups. The statistical analysis was applied on day −1 (baseline), day 2 and day 7.

normal pigs = test: Haemodynamic effects after LAD injection in normal pigs without balloon occlusion (Example 2b); assay type: in vivo, pig; details: 25 ml into LAD, 45 to 70 seconds after injection
Source text: FIG. 5 depicts the effect of Compound I (with and without added Ca) and Visipaque on LVSP 45 to 70 seconds from the start of injection to the LAD of normal pigs normalised to Ringer Lacate (LR) injection.
The haemodynamic effects of compositions of Compound I with and without added CaCl2 were compared to Visipaque and Iopamidol following selective administration to the LAD in normal pigs without balloon occlusion. The effects of each contrast media were normalised to any effects seen with an equivalent injection of Ringer Lactate solution, which acted as a volume and electrolyte—“ratio” control. There were a total of 12 pigs in this study, and each pig received a single CM injected 3 times at volumes of 10 ml (4 ml/sec), 20 ml (1 ml/sec) and 25 ml (0.4 ml/sec) (total of 9 CM injections in each pig). Each CM was either preceded or followed by a control injection of Ringer Lactate, and the order of each injection (volume) was randomised in each pig.

porcine heart = test: Intravenous and intra-arterial cardiovascular safety, acute porcine model (Example 3); assay type: in vivo, pig
Method: The intravenous (i.v) and intra-arterial (i.a.) safety of a composition of Compound I was shown in a separate study (ref. B145095). In this study the cardiovascular effects of Compound I in a composition with 45 mM NaCl and 0.5 mM CaCl2 was assessed at three dose levels in vivo in an acute porcine model.
The composition was administered either intra-arterially or intravenously into groups of three animals at one of three dose levels (1-fold, 2-fold or 3-fold the standard volume of 2 ml/kg). Each animal also received an equivalent volume of Ringer-Lactate solution as a volume control. CV effects: heart rate (HR), pulse oximetry, electrocardiogram (ECG), aortic pressure (systolic, diastolic and mean), left ventricular end diastolic pressure (LVEDP) were assessed. Ultrasound/echocardiography to assess stroke volume, ejection fraction and cardiac contractility were also evaluated.

## O=CN(CC(O)CN(C=O)c1c(I)c(C(=O)NCC(O)CO)c(I)c(C(=O)NCC(O)CO)c1I)c1c(I)c(C(=O)NCC(O)CO)c(I)c(C(=O)NCC(O)CO)c1I (stereo not shown) [Compound I, 5-[formyl-[3-[formyl-[3,5-bis(2,3-dihydroxypropylcarbamoyl)-2,4,6-triiodophenyl]amino]-2-hydroxypropyl]amino]-N,N′-bis(2,3-dihydroxypropyl)-2,4,6-triiodobenzene-1,3-dicarboxamide]
[1]
  binding to human serum albumin (HSA): 3.1±1.3%
[2]
  logP: -4.28
Sca:SD rats; male, Sca:SD, 2 day
  Proximal Tubule Vacuolation, Left Kidney: 3, 3, 3, 3
Sca:SD rats; male, Sca:SD, iv
  duration of clinical signs: 2 to 3 h
  onset of clinical signs after the first administration: 10 to 20 min
Sca:SD rats; iv
  adverse clinical signs: mild to moderate depression and uncoordinated movements and weakness/inactivity
Normal pigs; composition with 45 mM NaCl and 0.5 mM CaCl2
  LVSP change normalised to Ringer Lactate: −0.3 mm Hg
Normal pigs; composition with 45 mM NaCl, no added CaCl2
  LVSP change normalised to Ringer Lactate (mean): −5.7 mm Hg
Porcine heart; entire dose range, i.v. or i.a.
  effect on aortic pressure (systolic, diastolic and mean): little or no effect
Porcine heart; i.a. or i.v. dosing
  QT interval: within the normal range
Porcine heart; i.a. or i.v. route, up to 3-fold of 2 ml/kg
  myocardial performance, overall: no overall changes to myocardial performance
Porcine heart; i.v. or i.a., 1- to 3-fold of 2 ml/kg
  heart rate (HR): remained within normal ranges
Porcine heart; increasing doses, i.v. or i.a.
  LVEDP: slight increases
Porcine heart; pig, in vivo
  end diastolic volume (EDV), echocardiography: only a slight change
  rhythm disturbances (ECG): no Compound I-related rhythm disturbances
Porcine heart; throughout dosing, i.v. or i.a., 1- to 3-fold of 2 ml/kg, composition with 45 mM NaCl and 0.5 mM CaCl2
  oxygen saturation (pulse oximetry): approximately 98%
